# Patent US20250154169A1, “COMPOUNDS AND METHODS FOR MODULATING SPLICING” (REMIX THERAPEUTICS INC., priority 2021, published 2025)
# Read-outs that look alike come from different tables or passages of the source.
# Columns and labels:
# Format in all cases: cell-based, human
# HTT mRNA [1] = assay: Splicing RT-qPCR assay, HTT canonical (CJ) and alternative (AJ) junction mRNA; settings: Homo sapiens, A673 or K562 cells, 24 hours compound treatment; for IC50: 24 h, read-out: HTT CJ (IC50, decrease in canonical junction mRNA); for AC50: read-out: HTT AJ (AC50, increase in alternative junction mRNA)
# Procedure, shortened: (§1)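 A673 or K562 cells were treated 24 h at 37 °C with an 11-point 3-fold compound dilution series (top 10 uM, DMSO ≤0.25%). Lysates went to one-step RT-qPCR measuring canonical (CJ) and alternative-exon (AJ) junction transcripts, normalized to GAPDH, GUSB or PPIA.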
# MYB mRNA = assay: Splicing RT-qPCR assay, MYB canonical (CJ) and alternative (AJ) junction mRNA; settings: Homo sapiens; for AC50: read-out: MYB AJ (AC50, increase in alternative junction mRNA)
# Procedure, shortened: as §1
# SMN2 mRNA = assay: Splicing RT-qPCR gene panel, SMN2 canonical junction (CJ) mRNA; settings: Homo sapiens, Tables 4A/4B, read-out: SMN2 (IC50, decrease in CJ mRNA, gene panel)
# Procedure, shortened: (§2)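 First, A673 cells adhered 24 h before dosing, while K562 cells were plated and dosed directly. Both lines were then exposed to compound for 24 h at 37 °C, 5% CO2, top concentration 10 uM. Finally, lysates underwent RT-qPCR of the canonical junction, with ΔΔCt-based relative quantification.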
# Target C mRNA = assay: Splicing RT-qPCR gene panel, Target C canonical junction (CJ) mRNA; settings: Homo sapiens, Tables 4A/4B, read-out: Target C (IC50, decrease in CJ mRNA, gene panel)
# Procedure, shortened: as §2
# HTT mRNA [2] = assay: Splicing RT-qPCR gene panel, HTT canonical junction (CJ) mRNA; settings: Homo sapiens, Tables 4A/4B, read-out: HTT (IC50, decrease in CJ mRNA, gene panel)
# Procedure, shortened: as §2
# [3] = 24 h, A673 or K562 cells, 24 hours compound treatment, RT-qPCR
# [4] = 24 h, A673 or K562 cells, 24 hours compound treatment, RT-qPCR, read-out: MYB CJ (IC50, decrease in canonical junction mRNA)
# [5] = Tables 4A/4B, canonical junction qPCR panel, read-out: MYB (IC50, decrease in CJ mRNA, gene panel)
SMILES,IC50 (HTT mRNA [1]),AC50 (HTT mRNA [1]),AC50 (MYB mRNA; [3]),IC50 (MYB mRNA; [4]),IC50 (MYB mRNA; [5]),IC50 (SMN2 mRNA),IC50 (Target C mRNA),IC50 (HTT mRNA [2])
"Cc1cn2cc(NC(=O)c3ccc(N4CC[C@H](NC5CC5)C4)c4cn(C)nc34)cc(F)c2n1 [Compound 372, 4-[(3S)-3-(cyclopropylamino)pyrrolidin-1-yl]-N-{8-fluoro-2-methylimidazo[1,2-a]pyridin-6-yl}-2-methylindazole-7-carboxamide]",1000 to 10000 nM,1000 to 10000 nM,< 100 nM,< 100 nM,< 100 nM,< 100 nM,> 10000 nM,> 10000 nM
"Cc1cn2cc(NC(=O)c3ccc(N4CCC(NC5(CF)CC5)C4)c4cn(C)nc34)cc(F)c2n1 (stereo not shown) [Compound 373, N-{8-fluoro-2-methylimidazo[1,2-a]pyridin-6-yl}-4-(3-{[1-(fluoromethyl)cyclopropyl]amino}pyrrolidin-1-yl)-2-methylindazole-7-carboxamide]",1000 to 10000 nM,1000 to 10000 nM,< 100 nM,< 100 nM,< 100 nM,< 100 nM,> 10000 nM,1000 to 10000 nM
"CCn1cc2c(N3CCC(NC)C3)ccc(C(=O)Nc3cc(F)c4nc(C)cn4c3)c2n1 (stereo not shown) [Compound 374, 2-ethyl-N-{8-fluoro-2-methylimidazo[1,2-a]pyridin-6-yl}-4-[3-(methylamino)pyrrolidin-1-yl]indazole-7-carboxamide]",> 10000 nM,> 10000 nM,< 100 nM,< 100 nM,< 100 nM,< 100 nM,> 10000 nM,> 10000 nM
"CCn1cc2c(N3CCC(N(C)C)C3)ccc(C(=O)Nc3cc(F)c4nc(C)cn4c3)c2n1 (stereo not shown) [Compound 375, 4-[3-(dimethylamino)pyrrolidin-1-yl]-2-ethyl-N-{8-fluoro-2-methylimidazo[1,2-a]pyridin-6-yl}indazole-7-carboxamide]",100 to 1000 nM,100 to 1000 nM,100 to 1000 nM,100 to 1000 nM,100 to 1000 nM,< 100 nM,100 to 1000 nM,100 to 1000 nM
"CCn1cc2c(N3CCC(NC4CC4)CC3)ccc(C(=O)Nc3cc(F)c4nc(C)cn4c3)c2n1 [Compound 376, 4-[4-(cyclopropylamino)piperidin-1-yl]-2-ethyl-N-{8-fluoro-2-methylimidazo[1,2-a]pyridin-6-yl}indazole-7-carboxamide]",100 to 1000 nM,1000 to 10000 nM,100 to 1000 nM,100 to 1000 nM,< 100 nM,< 100 nM,> 10000 nM,1000 to 10000 nM
"CCn1cc2c(N3C[C@@H](C)N[C@@H](C)C3)ccc(C(=O)Nc3cc(F)c4nc(C)cn4c3)c2n1 [Compound 377, 4-[(3R,5S)-3,5-dimethylpiperazin-1-yl]-2-ethyl-N-{8-fluoro-2-methylimidazo[1,2-a]pyridin-6-yl}indazole-7-carboxamide]",1000 to 10000 nM,1000 to 10000 nM,100 to 1000 nM,100 to 1000 nM,< 100 nM,< 100 nM,1000 to 10000 nM,1000 to 10000 nM
"CCn1cc2c(N3CCN(C)CC3)ccc(C(=O)Nc3cc(F)c4nc(C)cn4c3)c2n1 [Compound 378, 2-ethyl-N-{8-fluoro-2-methylimidazo[1,2-a]pyridin-6-yl}-4-(4-methylpiperazin-1-yl) indazole-7-carboxamide]",1000 to 10000 nM,1000 to 10000 nM,100 to 1000 nM,100 to 1000 nM,< 100 nM,< 100 nM,> 10000 nM,1000 to 10000 nM
"CCn1cc2c(N3CCNC4(CC4)C3)ccc(C(=O)Nc3cc(F)c4nc(C)cn4c3)c2n1 [Compound 379, 4-{4,7-diazaspiro[2.5]octan-7-yl}-2-ethyl-N-{8-fluoro-2-methylimidazo[1,2-a]pyridin-6-yl}indazole-7-carboxamide]",1000 to 10000 nM,> 10000 nM,1000 to 10000 nM,100 to 1000 nM,100 to 1000 nM,< 100 nM,1000 to 10000 nM,1000 to 10000 nM
"CCNC1CCN(c2ccc(C(=O)Nc3cc(F)c4nc(C)cn4c3)c3nn(CC)cc23)CC1 [Compound 380, 2-ethyl-4-[4-(ethylamino)piperidin-1-yl]-N-{8-fluoro-2-methylimidazo[1,2-a]pyridin-6-yl}indazole-7-carboxamide]",1000 to 10000 nM,1000 to 10000 nM,< 100 nM,< 100 nM,< 100 nM,< 100 nM,1000 to 10000 nM,1000 to 10000 nM
"Cc1cn2cc(NC(=O)c3ccc(N4CC[C@@H](N)C4)c4cn(C)nc34)cc(F)c2n1 [Compound 381, 4-[(3R)-3-aminopyrrolidin-1-yl]-N-{8-fluoro-2-methylimidazo[1,2-a]pyridin-6-yl}-2-methylindazole-7-carboxamide]",> 10000 nM,> 10000 nM,< 100 nM,< 100 nM,< 100 nM,< 100 nM,> 10000 nM,> 10000 nM
"Cc1cn2cc(NC(=O)c3ccc(N4CC[C@H](N)C4)c4cn(C)nc34)cc(F)c2n1 [Compound 382, 4-[(3S)-3-aminopyrrolidin-1-yl]-N-{8-fluoro-2-methylimidazo[1,2-a]pyridin-6-yl}-2-methylindazole-7-carboxamide]",1000 to 10000 nM,1000 to 10000 nM,< 100 nM,< 100 nM,< 100 nM,< 100 nM,> 10000 nM,1000 to 10000 nM
"Cc1cn2cc(NC(=O)c3ccc(N4CC5(N)CC4C5)c4cn(C)nc34)cc(F)c2n1 [Compound 383, 4-{4-amino-2-azabicyclo[2.1.1]hexan-2-yl}-N-{8-fluoro-2-methylimidazo[1,2-a]pyridin-6-yl}-2-methylindazole-7-carboxamide]",> 10000 nM,> 10000 nM,100 to 1000 nM,< 100 nM,< 100 nM,< 100 nM,> 10000 nM,> 10000 nM
"Cc1cn2cc(NC(=O)c3ccc(N4CCNCC4)c4cn(CC5(O)COC5)nc34)cc(F)c2n1 [Compound 384, N-{8-fluoro-2-methylimidazo[1,2-a]pyridin-6-yl}-2-[(3-hydroxyoxetan-3-yl)methyl]-4-(piperazin-1-yl) indazole-7-carboxamide]",> 10000 nM,> 10000 nM,1000 to 10000 nM,> 10000 nM,> 10000 nM,100 to 1000 nM,> 10000 nM,> 10000 nM
"COCCOc1nc2c(C(=O)Nc3cc(F)c4nc(C)cn4c3)ccc(N3CCNCC3)c2o1 [Compound 385, N-{8-fluoro-2-methylimidazo[1,2-a]pyridin-6-yl}-2-(2-methoxyethoxy)-7-(piperazin-1-yl)-1,3-benzoxazole-4-carboxamide]",> 10000 nM,> 10000 nM,> 10000 nM,> 10000 nM,> 10000 nM,> 10000 nM,> 10000 nM,> 10000 nM
"Cn1cc2c(N3CCNCC3)ccc(C(=O)Nc3cc(F)c4nc(CO)cn4c3)c2n1 [Compound 389, N-[8-fluoro-2-(hydroxymethyl)imidazo[1,2-a]pyridin-6-yl]-2-methyl-4-(piperazin-1-yl) indazole-7-carboxamide; trifluoroacetic acid]",> 10000 nM,> 10000 nM,1000 to 10000 nM,100 to 1000 nM,100 to 1000 nM,< 100 nM,> 10000 nM,> 10000 nM
"CCn1cc2c(N3CC[C@@H](N(C)C)C3)ccc(C(=O)Nc3cc(F)c4nc(C)cn4c3)c2n1 [Compound 407, (R)-4-(3-(dimethylamino)pyrrolidin-1-yl)-2-ethyl-N-(8-fluoro-2-methylimidazo[1,2-a]pyridin-6-yl)-2H-indazole-7-carboxamide]",> 10000 nM,> 10000 nM,100 to 1000 nM,100 to 1000 nM,100 to 1000 nM,< 100 nM,> 10000 nM,> 10000 nM
"CCn1cc2c(N3CC[C@H](N(C)C)C3)ccc(C(=O)Nc3cc(F)c4nc(C)cn4c3)c2n1 [Compound 408, (S)-4-(3-(dimethylamino)pyrrolidin-1-yl)-2-ethyl-N-(8-fluoro-2-methylimidazo[1,2-a]pyridin-6-yl)-2H-indazole-7-carboxamide]",> 10000 nM,> 10000 nM,100 to 1000 nM,100 to 1000 nM,100 to 1000 nM,< 100 nM,> 10000 nM,> 10000 nM
